Assay results: US9382228B2 (priority 2013, dated 2016)

Experiments:
[1] = molecular target: unphosphorylated PDGFRβ kinase (uPDGFRβ, Seq. ID No. 3) (Homo sapiens, UniProt P09619); assay: biochemical; settings: uPDGFRb, enzymatic assay, ATP 500 μM
[2] = molecular target: T1, unphosphorylated c-FMS kinase (uFMS, Seq. ID no. 1) (Homo sapiens, UniProt P07333); assay: biochemical; settings: uFMS, enzymatic assay, ATP 500 μM
T1 sequence (P07333 538-972): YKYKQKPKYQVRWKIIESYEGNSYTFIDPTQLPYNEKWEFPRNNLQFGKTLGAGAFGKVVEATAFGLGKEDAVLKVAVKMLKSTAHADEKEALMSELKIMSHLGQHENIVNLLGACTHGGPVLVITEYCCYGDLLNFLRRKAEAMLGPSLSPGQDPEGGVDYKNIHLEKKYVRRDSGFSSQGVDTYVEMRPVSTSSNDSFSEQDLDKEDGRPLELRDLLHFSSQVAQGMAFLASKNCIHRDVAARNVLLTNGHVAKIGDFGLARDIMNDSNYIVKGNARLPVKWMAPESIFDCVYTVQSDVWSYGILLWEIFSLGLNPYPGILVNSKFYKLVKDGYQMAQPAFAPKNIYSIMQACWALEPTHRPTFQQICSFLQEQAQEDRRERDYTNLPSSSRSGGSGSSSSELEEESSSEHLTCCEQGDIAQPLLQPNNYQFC
Protocol: In this assay, the oxidation of NADH (thus the decrease at A340 nm) was continuously monitored spectrophometrically. The reaction mixture (100 μL) contained FMS (purchased from Millipore) (10 nM), polyE4Y (1 mg/mL), MgCl2 (10 mM), pyruvate kinase (4 units), lactate dehydrogenase (0.7 units), phosphoenol pyruvate (1 mM), NADH (0.28 mM) and ATP (500 μM) in 90 mM Tris buffer containing 0.2% octyl-glucoside and 1% DMSO, pH 7.5. The inhibition reaction was started by mixing serial diluted test compound with the above reaction mixture. The absorption at 340 nm was monitored continuously for 4 hours at 30° C. on Synergy 2 plate reader. The reaction rate was calculated using the 3 to 4 h time frame. Percent inhibition was obtained by comparison of reaction rate with that of a control (i.e. in the absence of test compound). IC50 values were calculated from a series of percent inhibition values determined at a range of inhibitor concentrations using software routines as implemented in the GraphPad Prism software package.

M-NFS-60 cells = assay: cells; settings: 67 h, read-out: M-NFS-60 cell proliferation
Protocol: M-NFS-6 Cell Proliferation Assay
A serial dilution of test compound was dispensed into a 384-well black clear bottom plate (Corning, Corning, N.Y.). Two thousand five hundred cells were added per well in 50 μL complete growth medium. […] IC50 values were calculated from a series of percent inhibition values determined at a range of inhibitor concentrations using software routines as implemented in the GraphPad Prism software package.

osteoclast precursors = assay: cells; type: cell-based; settings: read-out: Osteoclast assay
Protocol: Osteoclast Tartrate-Resistant Acid Phosphatase Assay
Diluted compound was transferred to a 384-well black clear bottom plate. Two-thousand five hundred osteoclast precursors (Lonza, Walkersville, Md.) were added per well in growth media containing Receptor Activator of Nuclear Factor Kappa-beta ligand (RANKL) and M-CSF (R&D Systems, Minneapolis, Minn.). […] Tartrate-resistant acid phosphatase activity in the supernatant samples was determined using an acid phosphatase assay kit (Sigma, St. Louis, Mo.). Absorbance was measured at 550 nm using a plate reader. Data was analyzed using Prism software (Graphpad, San Diego, Calif.) to calculate IC50 values.

[3] = molecular target: unphosphorylated c-KIT kinase (uKIT, Seq. ID no. 2) (Homo sapiens, UniProt P10721); assay: biochemical; settings: uKIT, enzymatic assay, ATP 2000 μM
Chain of unphosphorylated c-KIT kinase (uKIT, Seq. ID no. 2) (P10721 with tags, fused parts or gaps): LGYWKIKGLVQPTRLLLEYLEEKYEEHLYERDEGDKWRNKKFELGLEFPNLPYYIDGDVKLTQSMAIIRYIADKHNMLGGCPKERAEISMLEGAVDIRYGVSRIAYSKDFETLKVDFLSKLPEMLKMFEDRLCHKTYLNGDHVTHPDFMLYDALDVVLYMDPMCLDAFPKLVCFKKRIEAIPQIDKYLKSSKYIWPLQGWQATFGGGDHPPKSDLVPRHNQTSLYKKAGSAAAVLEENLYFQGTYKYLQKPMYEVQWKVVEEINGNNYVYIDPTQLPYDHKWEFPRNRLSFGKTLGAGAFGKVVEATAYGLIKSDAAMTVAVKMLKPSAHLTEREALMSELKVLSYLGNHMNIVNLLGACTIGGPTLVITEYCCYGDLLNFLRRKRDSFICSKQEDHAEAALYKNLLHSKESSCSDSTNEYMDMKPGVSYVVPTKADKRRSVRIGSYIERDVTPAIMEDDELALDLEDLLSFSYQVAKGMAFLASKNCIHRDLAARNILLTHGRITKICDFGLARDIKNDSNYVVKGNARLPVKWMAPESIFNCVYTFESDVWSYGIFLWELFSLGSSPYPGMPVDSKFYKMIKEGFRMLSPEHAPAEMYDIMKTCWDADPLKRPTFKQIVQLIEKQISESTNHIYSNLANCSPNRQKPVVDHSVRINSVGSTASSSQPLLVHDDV
Protocol: uKit kinase (Seq. ID No. 2) Assay
In this assay, the oxidation of NADH (thus the decrease at A340 nm) was continuously monitored spectrophometrically. […] The inhibition reaction was started by mixing serial diluted test compound with the above reaction mixture. The absorption at 340 nm was monitored continuously for 4 hours at 30° C. on Synergy 2 plate reader (BioTech).

Chain of unphosphorylated PDGFRβ kinase (uPDGFRβ, Seq. ID No. 3) (P09619 557-1106): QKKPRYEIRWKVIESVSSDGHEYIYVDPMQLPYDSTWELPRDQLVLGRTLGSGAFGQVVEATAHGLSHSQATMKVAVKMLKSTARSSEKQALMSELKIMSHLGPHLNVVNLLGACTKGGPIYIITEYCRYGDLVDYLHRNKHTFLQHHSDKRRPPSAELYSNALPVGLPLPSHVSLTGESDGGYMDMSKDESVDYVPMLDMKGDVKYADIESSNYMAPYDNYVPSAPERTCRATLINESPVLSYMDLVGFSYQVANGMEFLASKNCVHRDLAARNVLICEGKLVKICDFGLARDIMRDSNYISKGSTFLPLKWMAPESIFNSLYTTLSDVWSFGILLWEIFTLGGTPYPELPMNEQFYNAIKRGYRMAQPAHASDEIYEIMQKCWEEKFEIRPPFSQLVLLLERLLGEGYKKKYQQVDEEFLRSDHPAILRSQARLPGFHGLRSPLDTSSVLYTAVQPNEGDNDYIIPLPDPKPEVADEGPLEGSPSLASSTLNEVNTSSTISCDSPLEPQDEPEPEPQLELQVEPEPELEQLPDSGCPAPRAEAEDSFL

| Compound | IC50 [1] [nM] | IC50 [2] [nM] | IC50 (M-NFS-60 cells) [nM] | IC50 (osteoclast precursors) [nM] | IC50 [3] [nM] |
| --- | --- | --- | --- | --- | --- |
| Cn1cc(-c2cc(Oc3ccc(NC(=O)NC(=O)C4CC(C)(C)C4)nc3)ncn2)cn1 [Example 5, 3,3-dimethyl-N-((5-((6-(1-methyl-1H-pyrazol-4-yl)pyrimidin-4-yl)oxy)pyridin-2-yl)carbamoyl)cyclobutanecarboxamide] | 10 to 100 | < 10 | < 10 | < 10 |  |
| Cc1cc(-c2cc(Oc3ccc(NC(=O)NC(=O)C4CC(C)(C)C4)nc3C)ccn2)on1 [Example 14, 3,3-dimethyl-N-((6-methyl-5-((2-(3-methylisoxazol-5-yl)pyridin-4-yl)oxy)pyridin-2-yl)carbamoyl)cyclobutanecarboxamide] | 100 to 1000 |  |  | 10 to 100 |  |
| CC(C)C(=O)NC(=O)Nc1ccc(Oc2ccnc(-c3cnn(C)c3)c2)cn1 [Example 24, N-((5-((2-(1-methyl-1H-pyrazol-4-yl)pyridin-4-yl)oxy)pyridin-2-yl)carbamoyl)isobutyramide] |  |  |  | < 10 |  |
| COCCCC(=O)NC(=O)Nc1ccc(Oc2ccnc(-c3cnn(C)c3)c2)c(C)n1 [Example 25, 4-methoxy-N-((6-methyl-5-((2-(1-methyl-1H-pyrazol-4-yl)pyridin-4-yl)oxy)pyridin-2-yl)carbamoyl)butanamide] | > 1000 | 10 to 100 | 100 to 1000 |  |  |
| Cn1cc(-c2cc(Oc3ccc(NC(=O)NC(=O)C4(C#N)CC4)nc3)ccn2)cn1 [Example 27, 1-cyano-N-((5-((2-(1-methyl-1H-pyrazol-4-yl)pyridin-4-yl)oxy)pyridin-2-yl)carbamoyl)cyclopropanecarboxamide] | > 1000 | > 1000 | > 1000 |  | > 1000 |
| Cc1nc(NC(=O)NC(=O)C2(C#N)CC2)ccc1Oc1ccnc(-c2cnn(C)c2)c1 [Example 28, 1-cyano-N-((6-methyl-5-((2-(1-methyl-1H-pyrazol-4-yl)pyridin-4-yl)oxy)pyridin-2-yl)carbamoyl)cyclopropanecarboxamide] | > 1000 | 100 to 1000 | > 1000 |  | > 1000 |
| Cc1nc(NC(=O)NC(=O)C(C)(C)C#N)ccc1Oc1ccnc(-c2cnn(C)c2)c1 [Example 29, 2-cyano-2-methyl-N-((6-methyl-5-((2-(1-methyl-1H-pyrazol-4-yl)pyridin-4-yl)oxy)pyridin-2-yl)carbamoyl)propanamide] | > 1000 | 10 to 100 | 100 to 1000 |  | > 1000 |
| Cn1cc(-c2cc(Oc3ccc(NC(=O)NC(=O)C(C)(C)C#N)nc3)ccn2)cn1 [Example 30, 2-cyano-2-methyl-N-((5-((2-(1-methyl-1H-pyrazol-4-yl)pyridin-4-yl)oxy)pyridin-2-yl)carbamoyl)propanamide] | > 1000 | 100 to 1000 | > 1000 |  | > 1000 |
| Cc1nc(NC(=O)NC(=O)CN2CCN(C)CC2)ccc1Oc1ccnc(-c2cnn(C)c2)c1 [Example 50, N-((6-methyl-5-((2-(1-methyl-1H-pyrazol-4-yl)pyridin-4-yl)oxy)pyridin-2-yl)carbamoyl)-2-(4-methylpiperazin-1-yl)acetamide] |  | 100 to 1000 | > 1000 |  | > 1000 |
| CC(C)C(=O)NC(=O)Nc1ccc(Oc2ccnc(-c3cnn(C)c3)c2)c(C(F)(F)F)n1 [Example 82, N-((5-((2-(1-methyl-1H-pyrazol-4-yl)pyridin-4-yl)oxy)-6-(trifluoromethyl)pyridin-2-yl)carbamoyl)isobutyramide] |  |  |  | 100 to 1000 |  |
| CCC(=O)NC(=O)Nc1ccc(Oc2ccnc(-c3cnc(C)s3)c2)cn1 [Example 98, N-((5-((2-(2-methylthiazol-5-yl)pyridin-4-yl)oxy)pyridin-2-yl)carbamoyl)propionamide] |  |  |  | 100 to 1000 |  |
| Cn1cc(-c2cc(Oc3ccc(NC(=O)NC(=O)C4CC5CCC4O5)nc3)ccn2)cn1 (stereo not shown) [Example 111, N-((5-((2-(1-methyl-1H-pyrazol-4-yl)pyridin-4-yl)oxy)pyridin-2-yl)carbamoyl)-7-oxabicyclo[2.2.1]heptane-2-carboxamide] |  |  |  | < 10 | 100 to 1000 |
| Cc1ccc(-c2cc(Oc3ccc(NC(=O)NC(=O)C4(C)CC4)nc3)ccn2)cn1 [Example 114, 1-methyl-N-((5-((6′-methyl-[2,3′-bipyridin]-4-yl)oxy)pyridin-2-yl)carbamoyl)cyclopropanecarboxamide] |  |  |  | < 10 |  |
| Cc1ncc(-c2cc(Oc3ccc(NC(=O)NC(=O)C4CCOC4)nc3)ccn2)s1 (stereo not shown) [Example 115, N-((5-((2-(2-methylthiazol-5-yl)pyridin-4-yl)oxy)pyridin-2-yl)carbamoyl)tetrahydrofuran-3-carboxamide] |  | 10 to 100 | 100 to 1000 | 10 to 100 | > 1000 |
| Cc1ncc(-c2cc(Oc3ccc(NC(=O)NC(=O)C4(C)CC4)nc3)ccn2)s1 [Example 121, 1-methyl-N-((5-((2-(2-methylthiazol-5-yl)pyridin-4-yl)oxy)pyridin-2-yl)carbamoyl)cyclopropanecarboxamide] |  |  |  | < 10 |  |
| COC1(C(=O)NC(=O)Nc2ccc(Oc3ccnc(-c4cnc(C)s4)c3)c(C)n2)CC1 [Example 122, 1-methoxy-N-((6-methyl-5-((2-(2-methylthiazol-5-yl)pyridin-4-yl)oxy)pyridin-2-yl)carbamoyl)cyclopropanecarboxamide] |  | 10 to 100 | 100 to 1000 | 10 to 100 | > 1000 |
| CCC(=O)NC(=O)Nc1ccc(Oc2ccnc(-n3cnc(C)c3)c2)cn1 [Example 128, N-((5-((2-(4-methyl-1H-imidazol-1-yl)pyridin-4-yl)oxy)pyridin-2-yl)carbamoyl)propionamide] |  | 100 to 1000 | > 1000 | 100 to 1000 | > 1000 |
| Cc1ncc(-c2cc(Oc3ccc(NC(=O)NC(=O)C4CCOCC4)nc3C)ccn2)s1 [Example 129, N-((6-methyl-5-((2-(2-methylthiazol-5-yl)pyridin-4-yl)oxy)pyridin-2-yl)carbamoyl)tetrahydro-2H-pyran-4-carboxamide] |  | 10 to 100 | 100 to 1000 | 10 to 100 | > 1000 |
| COC(C)(C)C(=O)NC(=O)Nc1ccc(Oc2ccnc(-c3ccc(C4CCN(C)CC4)cc3)c2)c(C)n1 [Example 133, 2-methoxy-2-methyl-N-((6-methyl-5-((2-(4-(1-methylpiperidin-4-yl)phenyl)pyridin-4-yl)oxy)pyridin-2-yl)carbamoyl)propanamide] |  | < 10 | < 10 | 10 to 100 | 10 to 100 |
| Cc1cn(-c2cc(Oc3ccc(NC(=O)NC(=O)C4CCOCC4)nc3C)ccn2)cn1 [Example 142, N-((6-methyl-5-((2-(4-methyl-1H-imidazol-1-yl)pyridin-4-yl)oxy)pyridin-2-yl)carbamoyl)tetrahydro-2H-pyran-4-carboxamide] |  | 10 to 100 | 100 to 1000 | 10 to 100 | 100 to 1000 |
| COC1(C(=O)NC(=O)Nc2ccc(Oc3ccnc(-n4cnc(C)c4)c3)cn2)CC1 [Example 143, 1-methoxy-N-((5-((2-(4-methyl-1H-imidazol-1-yl)pyridin-4-yl)oxy)pyridin-2-yl)carbamoyl)cyclopropanecarboxamide] |  | 10 to 100 | 100 to 1000 | 10 to 100 | 100 to 1000 |
| COC1(C(=O)NC(=O)Nc2ccc(Oc3ccnc(-c4ccc(C5CCN(C)CC5)cc4)c3)c(C)n2)CC1 [Example 144, 1-methoxy-N-((6-methyl-5-((2-(4-(1-methylpiperidin-4-yl)phenyl)pyridin-4-yl)oxy)pyridin-2-yl)carbamoyl)cyclopropanecarboxamide] |  |  |  | < 10 | 100 to 1000 |
| Cc1cn(-c2cc(Oc3ccc(NC(=O)NC(=O)C4(C)CCC4)nc3C)ccn2)cn1 [Example 147, 1-methyl-N-((6-methyl-5-((2-(4-methyl-1H-imidazol-1-yl)pyridin-4-yl)oxy)pyridin-2-yl)carbamoyl)cyclobutanecarboxamide] |  |  |  | 10 to 100 |  |
| COC1(C(=O)NC(=O)Nc2ccc(Oc3ccnc(-c4cnn(C)c4)c3)c(C)n2)CCCC1 [Example 150, 1-methoxy-N-((6-methyl-5-((2-(1-methyl-1H-pyrazol-4-yl)pyridin-4-yl)oxy)pyridin-2-yl)carbamoyl)cyclopentanecarboxamide] | 100 to 1000 |  |  | 10 to 100 | 10 to 100 |
| COC1(C(=O)NC(=O)Nc2ccc(Oc3ccnc(-c4cnn(C)c4)c3)cn2)CCCC1 [Example 153, 1-methoxy-N-((5-((2-(1-methyl-1H-pyrazol-4-yl)pyridin-4-yl)oxy)pyridin-2-yl)carbamoyl)cyclopentanecarboxamide] |  |  |  | < 10 |  |
